Data on twelve molecules can be found in US7179943B2, “Bicyclic derivatives that modulate voltage-gated potassium channels and methods of use thereof” (Wyeth, priority 2004, dated 2007).

Data set [1] has as its target T1, human Kv1.1/Kvβ1 potassium ion channel complex (Homo sapiens, UniProt Q09470).
T1 construct: expressed in transfected cells; host or cells: Xenopus oocytes injected with cRNA
The data set can be described thus: Xenopus oocytes current assay (inhibition of inactivation, voltage clamp). The class given is cell-based. To be noted: Xenopus oocytes expressing hKv1.1/hKvβ1, relative to control bath solution, read-out: Percent Increase in Steady State Current Of human Kv1.1/Kvβ1 @ a concentration of 50 μM. The method, then:
The compounds of formula I were examined for their ability to inhibit the inactivation of the human Kv1.1/Kvβ1 potassium ion channel complex in vitro using electrophysiological current recordings on inactivating Kv1.1/Kvβ1 channels expressed in Xenopus oocytes. Xenopus oocytes were harvested from frogs under general anesthesia using aseptic techniques. Oocytes were treated with 2 mg/ml collagenase for 1–1.5 hr, defolliculated, and injected with 40 nL cRNA (a mixture of hky1.1 and hKvβ1) produced using standard molecular biological techniques (Sambrook, et al., 1989, Molecular Cloning: A Laboratory Manual). The concentration of hKv1.1/hKvp1 cRNA varies, but was generally about 50 ng/μL hKv1.1 and […] hKβ1.
Currents were recorded using standard voltage clamp amplifiers at room temperature. Recordings were performed in the bath solution “ND-96” containing 96 mM NaCl, 2 mM KCl, 1 mm CaCl2, 1 mM MgCl2, 10 mM HEPES and […] Gentamycin (pH=7.6). The pipette (electrode) solution generally consisted of […]. Electrodes were made from WPI TW150F-4 borosilicate glass (or equivalent) and typically had resistances of 0.5–1.5 Mohms. The standard current-voltage (IV) pulse protocol consisted of voltage steps from −60 mV to +50 mV, in 10 mV increments for 200 ms, at a frequency of one IV set per 2 minutes. Data were digitized and analyzed by standard software packages.
Solutions of the test compounds consisting of test compounds dissolved in bath solution were applied by bath perfusion using gravity or pump-driven flow. A minimum of 2 mL (10 times the bath volume) over 3 minutes were flowed for each compound concentration tested. Data were averaged across at least 3 cells tested for each concentration.
Test compounds were examined for their ability to inhibit the inactivation of the steady state portion of the IV curve.

T1 sequence (Q09470 whole entry, one chain of several): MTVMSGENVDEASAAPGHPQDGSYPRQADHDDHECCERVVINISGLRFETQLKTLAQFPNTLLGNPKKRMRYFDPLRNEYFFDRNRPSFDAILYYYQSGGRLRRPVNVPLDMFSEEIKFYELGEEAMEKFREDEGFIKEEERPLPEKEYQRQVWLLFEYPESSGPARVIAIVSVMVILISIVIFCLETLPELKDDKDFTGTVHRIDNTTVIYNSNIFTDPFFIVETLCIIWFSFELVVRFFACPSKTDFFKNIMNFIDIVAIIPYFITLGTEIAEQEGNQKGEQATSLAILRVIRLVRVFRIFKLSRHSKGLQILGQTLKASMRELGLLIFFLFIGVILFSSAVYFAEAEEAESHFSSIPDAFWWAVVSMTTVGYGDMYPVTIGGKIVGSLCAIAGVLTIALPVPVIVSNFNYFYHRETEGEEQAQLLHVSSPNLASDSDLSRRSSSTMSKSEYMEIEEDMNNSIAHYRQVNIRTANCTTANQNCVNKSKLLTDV

One may read the melting point as the temperature, or range, at which the solid turns liquid. Consider `O=C(Nc1cccc(C(F)(F)F)c1)C1C(=O)C2CCC(C2)C1=O` (stereo not drawn) [Example 22, N-[3-(trifluoromethyl)phenyl]-2,4-dioxobicyclo[3.2.1]octane-3-carboxamide], for which the melting point fell in the range of 68 to 69 °C. The activation at 50 µM in data set [1] was 41%.
As for `CC1(C)C2CC[C@]1(C)C(=O)C(C(=O)Nc1ccc(F)c(Cl)c1)C2=O` (stereo partly drawn) [Example 10, (1S)-N-[3-chloro-4-fluorophenyl]-1,8,8-trimethyl-2,4-dioxobicyclo[3.2.1] octane-3-carboxamide], the melting point was in the range of 87 to 89 °C. Besides, the activation at 50 µM in data set [1] worked out at 137%.
In the same order, the values of `CC1(C)C2CC[C@]1(C)C(=O)C(C(=O)Nc1ccc(C(F)(F)F)cc1)C2=O` (stereo partly drawn) [Example 8, (1S)-N-[4-(trifluoromethyl)phenyl]-1,8,8-trimethyl-2,4-dioxobicyclo[3.2.1] octane-3-carboxamide] are 81 to 83 °C and 53%.
As to `CC1(C)C2CC[C@]1(C)C(=O)C(C(=O)Nc1ccc(Cl)c(Cl)c1)C2=O` (stereo partly drawn) [Example 4, (1S)-N-(3,4-dichlorophenyl)-1,8,8-trimethyl-2,4-dioxobicyclo[3.2.1]octane-3-carboxamide], the melting point was in the range of 88 to 90 °C. Also, the activation at 50 µM in data set [1] stood at 11%.
In the same order, the values of `CC1(C)C2CC[C@@]1(C)C(=O)C(C(=O)Nc1ccc(Cl)c(C(F)(F)F)c1)C2=O` (stereo partly drawn) [Example 16, (1R)-N-[4-chloro-3-(trifluoromethyl)phenyl]-1,8,8-trimethyl-2,4-dioxobicyclo [3.2.1]octane-3-carboxamide] are 117 to 119 °C and 45%.
As for `CC1(C)C2CC[C@@]1(C)C(=O)C(C(=O)Nc1ccc(Cl)cc1)C2=O` (stereo partly drawn) [Example 19, (1R)-N-[4-chlorophenyl]-1,8,8-trimethyl-2,4-dioxobicyclo[3.2.1]octane-3-carboxamide], the melting point lay within 88 to 90 °C. For the same molecule, the activation at 50 µM in data set [1] is 14%.
With `CN(C)c1ccc(NC(=O)C2C(=O)C3CC[C@](C)(C2=O)C3(C)C)cc1` (stereo partly drawn) [Example 9, (1S)-N-[4-(dimethylamino)phenyl]-1,8,8-trimethyl-2,4-dioxobicyclo[3.2.1] octane-3-carboxamide], the melting point was 93 to 95 °C. The activation at 50 µM in data set [1] came out at 27%.
Taken in the same sequence, the figures for `O=C(Nc1ccc(Cl)c(C(F)(F)F)c1)C1C(=O)C2CCC(C2)C1=O` (stereo not drawn) [Example 25, N-[4-chloro-3-(trifluoromethyl)phenyl]-2,4-dioxobicyclo[3.2.1]octane-3-carboxamide] were 136 to 137 °C and 47%.
In the same order, the values of `CC1(C)C2CC[C@@]1(C)C(=O)C(C(=O)Nc1cc(C(F)(F)F)cc(C(F)(F)F)c1)C2=O` (stereo partly drawn) [Example 12, (1R)-N-[3,5-bis(trifluoromethyl)phenyl]-1,8,8-trimethyl-2,4-dioxobicyclo [3.2.1]octane-3-carboxamide] are 68 to 71 °C and 22%.
In the same order, the values of `CC1(C)C2CC[C@@]1(C)C(=O)C(C(=O)Nc1ccc([N+](=O)[O-])cc1)C2=O` (stereo partly drawn) [Example 15, (1R)-N-(4-nitrophenyl)-1,8,8-trimethyl-2,4-dioxobicyclo[3.2.1]octane-3-carboxamide] are 168 to 170 °C and 75%.
Regarding `CC1(C)C2CC[C@@]1(C)C(=O)C(C(=O)Nc1cc(Cl)cc(Cl)c1)C2=O` (stereo partly drawn) [Example 13, (1R)-N-(3,5-dichlorophenyl)-1,8,8-trimethyl-2,4-dioxobicyclo[3.2.1]octane-3-carboxamide], the melting point is 115 to 117 °C. Further, the activation at 50 µM in data set [1] was determined as 19%.
For the molecule `O=C(Nc1ccc(F)c(C(F)(F)F)c1)C1C(=O)C2CCC(C2)C1=O` (stereo not drawn) [Example 27, N-[4-fluoro-3-(trifluoromethyl)phenyl]-2,4-dioxobicyclo[3.2.1]octane-3-carboxamide], the melting point lay within 97 to 100 °C. The activation at 50 µM in data set [1] was determined as 43%.
